# Laboratory results reported in patent USRE39591E1, “6-O-substituted ketolides having antibacterial activity” (Abbott Laboratories, priority 1996, dated 2007).
# System: up to 32 different microorganisms
# Assay: in vitro antibacterial activity (MIC), agar dilution on Brain Heart Infusion (BHI) agar with Steers replicator
# Type: cell-based
# Conditions: unit assumed
# In short: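 Agar dilution MIC: twelve successive compound dilutions in BHI agar, spot-inoculated with 1:100 (1:10 for slow growers) organism dilutions by Steers replicator, incubated 35-37° C for 20-24 h. MIC is lowest concentration showing no growth, slight haze or sparse colonies versus drug-free control; erythromycin A as class reference.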
# [1] = Candida albicans CCH 442 (code TT)
# [2] = Enterococcus faecism ATCC 8043 (code II)
# [3] = Escherichia coli DC-2 (code SS)
# [4] = Escherichia coli JUHL (code QQ)
# [5] = Micrococcus luteus ATCC 4698 (code PP)
# [6] = Micrococcus luteus ATCC 9341 (code OO)
# [7] = Mycobacterium smegmatis ATCC 114 (code UU)
# [8] = Nocardia Asteroides ATCC9970 (code VV)
# [9] = Staphylococcus aureus 1775 (code GG)
# [10] = Staphylococcus aureus A5177 (code BB)
# [11] = Staphylococcus aureus A-5278 (code CC)
# [12] = Staphylococcus aureus ATCC 6538P (code AA)
# [13] = Staphylococcus aureus CMX 553 (code FF)
# [14] = Staphylococcus aureus CMX 642A (code DD)
# [15] = Staphylococcus aureus NCTC10649M (code EE)
# [16] = Staphylococcus epidermidis 3519 (code HH)
# [17] = Streptococcus agalactiae CMX 508 (code KK)
# [18] = Streptococcus bovis A-5169 (code JJ)
# [19] = Streptococcus pyogenes 930 (code MM)
# [20] = Streptococcus pyogenes EES61 (code LL)
# [21] = Streptococcus pyogenes PIU 2548 (code NN)
structure (smiles),measurement,setting,value
"CC[C@H]1OC(=O)[C@H](C)C(=O)[C@H](C)[C@@H](O[C@@H]2O[C@H](C)C[C@H](N(C)C)[C@H]2O)[C@@](C)(OCc2ccc3ccccc3c2)C[C@@H](C)C(=O)[C@H](C)[C@H]2NC(=O)O[C@@]21C [Example 176, Compound of Formula (IX): L is CO, T is NH, R is —CH2-(2-naphthyl)]",MIC,[1],> 100 µg/mL
same,MIC,[2],0.2 µg/mL
same,MIC,[3],> 100 µg/mL
same,MIC,[4],> 100 µg/mL
same,MIC,Escherichia coli SS (code RR),3.1 µg/mL
same,MIC,Haemophilis influenzae DILL AMP R (code WW),64 µg/mL
same,MIC,[5],0.2 µg/mL
same,MIC,[6],0.05 µg/mL
same,MIC,[7],0.78 µg/mL
same,MIC,[8],1.56 µg/mL
same,MIC,[9],100 µg/mL
same,MIC,[10],0.78 µg/mL
same,MIC,[11],> 100 µg/mL
same,MIC,[12],1.56 µg/mL
same,MIC,[13],0.78 µg/mL
same,MIC,[14],1.56 µg/mL
same,MIC,[15],0.78 µg/mL
same,MIC,[16],0.78 µg/mL
same,MIC,Streptococcus Pneumonia 5649 (code ZZA),0.25 µg/mL
same,MIC,Streptococcus Pneumonia 5979 (code ZZ),64 µg/mL
same,MIC,Streptococcus Pneumonia ATCC6303 (code XX),0.25 µg/mL
same,MIC,Streptococcus Pneumonia GYR 1171 (code YY),0.25 µg/mL
same,MIC,[17],0.05 µg/mL
same,MIC,[18],0.05 µg/mL
same,MIC,[19],50 µg/mL
same,MIC,[20],0.05 µg/mL
same,MIC,[21],0.2 µg/mL
"CCC1OC(=O)C(C)C(=O)C(C)C(OC2OC(C)CC(N(C)C)C2O)C(C)(OCC=Cc2ccc3cccnc3c2)CC(C)C(=O)C(C)C2NC(=O)OC12C (centres unmarked) [Example 278, Compound of Formula (IX): L is CO, T is NH2, R is —CH2CH═CH-(7-quinolyl)]",MIC,organism code AA,0.05 µg/mL
same,MIC,organism code BB,0.05 µg/mL
same,MIC,organism code CC,> 100 µg/mL
same,MIC,organism code DD,0.05 µg/mL
same,MIC,organism code EE,0.05 µg/mL
same,MIC,organism code FF,0.05 µg/mL
same,MIC,organism code GG,> 100 µg/mL
same,MIC,organism code HH,0.1 µg/mL
same,MIC,organism code II,0.05 µg/mL
same,MIC,organism code JJ,0.01 µg/mL
same,MIC,organism code KK,0.01 µg/mL
same,MIC,organism code LL,≤ 0.005 µg/mL
same,MIC,organism code MM,1.56 µg/mL
same,MIC,organism code NN,0.2 µg/mL
same,MIC,organism code OO,0.01 µg/mL
same,MIC,organism code PP,0.1 µg/mL
same,MIC,organism code QQ,25 µg/mL
same,MIC,organism code RR,0.39 µg/mL
same,MIC,organism code SS,12.5 µg/mL
same,MIC,organism code TT,> 100 µg/mL
same,MIC,organism code UU,0.78 µg/mL
same,MIC,organism code VV,0.02 µg/mL
same,MIC,organism code WW,4 µg/mL
same,MIC,organism code XX,0.03 µg/mL
same,MIC,organism code YY,0.03 µg/mL
same,MIC,organism code ZZ,128 µg/mL
same,MIC,organism code ZZA,0.5 µg/mL
"CC[C@H]1OC(=O)[C@H](C)C(=O)[C@H](C)[C@@H](O[C@@H]2O[C@H](C)C[C@H](N(C)C)[C@H]2O)[C@@](C)(OCC2COC(C)(C)O2)C[C@@H](C)C(=O)[C@H](C)[C@H]2NC(=O)O[C@@]21C (some centres unmarked) [Example 259, Compound of Formula (IX): L is CO, T is NH, R is —CH2-(2,2-dimethyl-1,3-dioxolan-4-yl)]",MIC,organism code AA,6.2 µg/mL
same,MIC,organism code BB,6.2 µg/mL
same,MIC,organism code CC,> 100 µg/mL
same,MIC,organism code DD,12.5 µg/mL
same,MIC,organism code EE,6.2 µg/mL
same,MIC,organism code FF,6.2 µg/mL
same,MIC,organism code GG,> 100 µg/mL
same,MIC,organism code HH,6.2 µg/mL
same,MIC,organism code II,0.78 µg/mL
same,MIC,organism code JJ,0.39 µg/mL
same,MIC,organism code KK,0.78 µg/mL
same,MIC,organism code LL,0.39 µg/mL
same,MIC,organism code MM,> 100 µg/mL
same,MIC,organism code NN,1.56 µg/mL
same,MIC,organism code OO,0.78 µg/mL
same,MIC,organism code PP,1.56 µg/mL
same,MIC,organism code QQ,> 100 µg/mL
same,MIC,organism code RR,1.56 µg/mL
same,MIC,organism code SS,> 100 µg/mL
same,MIC,organism code TT,> 100 µg/mL
same,MIC,organism code UU,12.5 µg/mL
same,MIC,organism code VV,3.1 µg/mL
same,MIC,organism code WW,128 µg/mL
same,MIC,organism code XX,1 µg/mL
same,MIC,organism code YY,1 µg/mL
same,MIC,organism code ZZ,> 128 µg/mL
same,MIC,organism code ZZA,4 µg/mL
"CC[C@H]1OC(=O)[C@H](C)C(=O)[C@H](C)[C@@H](O[C@@H]2O[C@H](C)C[C@H](N(C)C)[C@H]2O)[C@@](C)(OCCN)C[C@@H](C)C(=O)[C@H](C)[C@@H](O)[C@]1(C)O [Example 8, Compound of Formula (VIII): X is O, R is —CH2CH2NH2]",MIC,[1],> 100 µg/mL
same,MIC,[2],6.2 µg/mL
same,MIC,[3],> 100 µg/mL
same,MIC,[4],> 100 µg/mL
same,MIC,Escherichia coli SS (code RR),6.2 µg/mL
same,MIC,[5],12.5 µg/mL
same,MIC,[6],6.2 µg/mL
same,MIC,[7],> 100 µg/mL
same,MIC,[8],12.5 µg/mL
same,MIC,[9],> 100 µg/mL
same,MIC,[10],25 µg/mL
same,MIC,[11],> 100 µg/mL
same,MIC,[12],25 µg/mL
same,MIC,[13],50 µg/mL
same,MIC,[14],6.2 µg/mL
same,MIC,[15],6.2 µg/mL
same,MIC,[16],100 µg/mL
same,MIC,[17],6.2 µg/mL
same,MIC,[18],3.1 µg/mL
same,MIC,[19],> 100 µg/mL
same,MIC,[20],6.2 µg/mL
same,MIC,[21],12.5 µg/mL
"CCC1OC(=O)C(C)C(=O)C(C)C(OC2OC(C)CC(N(C)C)C2O)C(C)(OCC=Cc2ccc3[nH]cnc3c2)CC(C)C(=O)C(C)C2NC(=O)OC12C (centres unmarked) [Example 205, R is —CH2CH═CH-(5-benzimidazolyl)]",MIC,organism code XX,0.03 µg/mL
same,MIC,organism code YY,0.06 µg/mL
same,MIC,organism code ZZ,> 64 µg/mL
same,MIC,organism code ZZA,4 µg/mL
